# In patent US11279733B2, “Peptide antibiotics” (priority 2017, dated 2022):
# Read-outs that look alike come from different tables or passages of the source. Positions of bridges follow the written chain, without caps; N, C: chain ends. Non-standard residues stand in square brackets, D forms with d. Residues, ends and D or L forms follow the SMILES beside them. *: point of attachment. Decanoyl(3R-OH) = CCCCCCC[C@@H](O)CC(=O)*; dPhe(4-NH2) = Nc1ccc(C[C@@H](N)C(=O)O)cc1; dIgl = N[C@@H](C(=O)O)C1Cc2ccccc2C1; Igl = N[C@H](C(=O)O)C1Cc2ccccc2C1; dDab = NCC[C@@H](N)C(=O)O; dDap = NC[C@@H](N)C(=O)O; Dab = NCC[C@H](N)C(=O)O; Dap = NC[C@H](N)C(=O)O
# Assays:
# A. baumannii GN_093 PmxR = conditions: GN 093 PmxR
# In short: (§1)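 Mid-log cultures grown in Mueller Hinton broth at 37° C were tested by 2-fold broth microdilution at 5×10^5 CFU/mL final. Compounds were dissolved in water and tested over a final range of 32 to 0.015 μg/mL.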
# E. coli ATCC 25922 = conditions: ATCC 25922
# In short: as §1
# [1] = system: K. pneumoniae ATCC 700603, MDR; conditions: ATCC 700603
# In short: as §1
# [2] = system: P. aeruginosa GN_043, PmxR
# In short: as §1
# [3] = system: S. aureus ATCC 25923, MSSA; conditions: ATCC 25923
# In short: as §1
# [4] = system: P. aeruginosa GN_105, PmxR; conditions: GN 105, PmxR
# In short: as §1
# [5] = system: K. pneumoniae ATCC BAA-2146, NDM-1 pos; conditions: ATCC BAA-2146
# In short: as §1
# P. aeruginosa ATCC 27853 = conditions: ATCC 27853
# In short: as §1
# A. baumannii ATCC 19606 = conditions: ATCC 19606
# In short: as §1
# K. pneumoniae ATCC 13883 = conditions: ATCC 13883
# In short: as §1
# [6] = system: K. pneumoniae GN_102 PmxR; conditions: GN 102 PmxR
# In short: as §1
# [7] = system: K. pneumoniae GN_106, PmxR; conditions: GN 106, PmxR
# In short: as §1
# in vitro = conditions: human
# In short: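 Cells were seeded at 4000 per well and allowed to attach for 24 h at 37 °C, 5% CO2, then exposed to compounds for 24 h. Resazurin (5 μM) was added for 2 h at 37 °C and fluorescence read at 560/590 nm. CC50 was derived by curve fitting of dose-dependent growth inhibition.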
Structure (SMILES),MIC A. baumannii GN_093 PmxR (A. baumannii GN_093 PmxR),"MIC, E. coli ATCC 25922 (E. coli ATCC 25922)","MIC, K. pneumoniae ATCC 700603, MDR [1]","MIC P. aeruginosa GN_105, PmxR [4]","MIC, K. pneumoniae ATCC BAA-2146, NDM-1 pos [5]","MIC, P. aeruginosa ATCC 27853 (P. aeruginosa ATCC 27853)","MIC, A. baumannii ATCC 19606 (A. baumannii ATCC 19606)","MIC, K. pneumoniae ATCC 13883 (K. pneumoniae ATCC 13883)",MIC K. pneumoniae GN_102 PmxR [6],"MIC K. pneumoniae GN_106, PmxR [7]",CC50 at 24 h (in vitro),MIC E. coli ATCC 25922 (E. coli ATCC 25922),"MIC K. pneumoniae ATCC 700603, MDR [1]","MIC S. aureus ATCC 25923, MSSA [3]","MIC K. pneumoniae ATCC BAA-2146, NDM-1 pos [5]",MIC P. aeruginosa ATCC 27853 (P. aeruginosa ATCC 27853),MIC A. baumannii ATCC 19606 (A. baumannii ATCC 19606),MIC K. pneumoniae ATCC 13883 (K. pneumoniae ATCC 13883),also measured
"CCCCCCC[C@@H](O)CC(=O)N[C@@H](CN)C(=O)N[C@H]1CCNC(=O)[C@H](CC(C)C)NC(=O)[C@H](CCN)NC(=O)[C@H](CCN)NC(=O)[C@H](CC(C)C)NC(=O)[C@@H](Cc2ccccc2)NC(=O)[C@H](CCN)NC1=O [compound 5561, 3(R)OH-nC9CO-L-Dap-cyc[L-Dab-L-Dab-D-Phe-L-Leu-L-Dab-L-Dab-L-Leu]] ({Decanoyl(3R-OH)}-[Dap][Dab][Dab][dF]L[Dab][Dab]L; lactam 2-C)",8 µg/mL,4 µg/mL,8 µg/mL,2 µg/mL,8 µg/mL,2 µg/mL,16 µg/mL,4 µg/mL,4 µg/mL,4 µg/mL,> 300 µM,–,–,–,–,–,–,–,"MIC P. aeruginosa GN_043, PmxR ([2]; Table 6, polymyxin-resistant): 2 µg/mL; MIC, S. aureus ATCC 25923, MSSA [3]: 16 µg/mL"
"CCCCCCC[C@@H](O)CC(=O)N[C@H](Cc1ccc(N)cc1)C(=O)N[C@H]1CCNC(=O)[C@H](CC(C)C)NC(=O)[C@H](CCN)NC(=O)[C@H](CCN)NC(=O)[C@H](Cc2ccccc2)NC(=O)[C@@H](CC(C)C)NC(=O)[C@H](CCN)NC1=O [compound 6429, 3(R)OH-nC9CO-D-4NH2Phe-cyc[L-Dab-L-Dab-D-Leu-L-Phe-L-Dab-L-Dab-L-Leu]] ({Decanoyl(3R-OH)}-[dPhe(4-NH2)][Dab][Dab][dL]F[Dab][Dab]L; lactam 2-C)",>32 µg/mL,–,–,32 µg/mL,–,–,–,–,8 µg/mL,8 µg/mL,> 300 µM,16 µg/mL,8 µg/mL,>32 µg/mL,16 µg/mL,32 µg/mL,32 µg/mL,16 µg/mL,"MIC P. aeruginosa GN_043, PmxR ([2]; P. aeruginosa GN_043, PmxR): 16 µg/mL"
"CCCCCCC[C@@H](O)CC(=O)N[C@H](CN)C(=O)N[C@H]1CCNC(=O)[C@H](Cc2c[nH]c3ccccc23)NC(=O)[C@H](CCN)NC(=O)[C@H](CCN)NC(=O)[C@H](C2Cc3ccccc3C2)NC(=O)[C@@H](C2Cc3ccccc3C2)NC(=O)[C@H](CCN)NC1=O [compound 8897, 3(R)OH-nC9CO-D-Dap-cyc[L-Dab-L-Dab-D-indanylgly-L-indanylgly-L-Dab-L-Dab-L-Trp]] ({Decanoyl(3R-OH)}-[dDap][Dab][Dab][dIgl][Igl][Dab][Dab]W; lactam 2-C)",4 µg/mL,–,–,2 µg/mL,–,–,–,–,4 µg/mL,4 µg/mL,27 µM,2 µg/mL,4 µg/mL,2 µg/mL,4 µg/mL,4 µg/mL,4 µg/mL,4 µg/mL,"MIC P. aeruginosa GN_043, PmxR ([2]; polymyxin-resistant): 2 µg/mL"
"CCCCCCC[C@@H](O)CC(=O)N[C@H](CCN)C(=O)N[C@H]1CCNC(=O)[C@H](CC(C)C)NC(=O)[C@H](CCN)NC(=O)[C@H](CCN)NC(=O)[C@H](CC(C)C)NC(=O)[C@@H](Cc2ccccc2)NC(=O)[C@H](CCNC(=O)[C@@H](N)CCCNC(=N)N)NC1=O [compound 6655, 3(R)OH-nC9CO-D-Dab-cyc[L-Dab-L-Dab(L-Arg)-D-Phe-L-Leu-L-Dab-L-Dab-L-Leu]] ({Decanoyl(3R-OH)}-[dDab][Dab][Dab](Arg)[dF]L[Dab][Dab]L; lactam 2-C)",–,8 µg/mL,8 µg/mL,–,16 µg/mL,4 µg/mL,32 µg/mL,32 µg/mL,–,–,> 300 µM,–,–,–,–,–,–,–,"MIC, A. baumannii Cl Ptyela 10073 4512:2, PmxR (A. baumannii GN_093 PmxR): >32 µg/mL; MIC, P. aeruginosa FADDI-PA070, PmxR ([2]; Table 5, polymyxin-resistant): 4 µg/mL; MIC, S. Aureus ATCC 25923, MSSA [3]: 16 µg/mL; MIC, P. aeruginosa PA9704, PmxR [4]: 4 µg/mL; MIC, K. pneumoniae Cl Koprana 10065 0661:1, PmxR [6]: 16 µg/mL; MIC, K. pneumoniae Cl 138-16347-20362, PmxR [7]: >32 µg/mL"
